Assay results published in patent publication US10363239B2, “Method for inhibiting growth of cancer cells” (Pain Therapeutics, Inc., priority 2013, dated 2019).
Read-outs that look alike come from different tables or passages of the source.

What was measured:
mu opiate receptor (MOR) = experiment: MOR agonist activity using [35S]GTPγS binding assay in striatal membranes; format: biochemical; settings: for MOR agonist activity ([35S]GTPγS binding), FLNA-Binding Compound as Agonist 1 μM + BFNA: 1 μM compound + 1 μM β-funaltrexamine
How it was run: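 Striatal membranes (200 μg) were preincubated 5 min at 30 °C in HEPES pH 7.5 with 100 mM NaCl, 1 mM MgCl2 and 0.5 nM [35S]GTPγS, then 5 min more with 0.1–10 μM compound. Gαo was immunoprecipitated and bound radioactivity counted by scintillation.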

[1] = biological target: FLNA pentapeptide of SEQ ID NO: 1 (Bn-VAKGL) (Homo sapiens, UniProt P21333); experiment: FITC-NLX-based FLNA screening assay (inhibition of FITC-naloxone binding to Bn-VAKGL on streptavidin plates); settings: 10 nM FITC-NLX
[2] = 0.1 μM compound relative to DAMGO
[3] = 1 μM compound + BFNA relative to DAMGO + BFNA
[4] = 1 μM compound relative to DAMGO
[5] = read-out: Percent Binding Inhibition, FLNA-binding compound 0.01 μM
[6] = read-out: Percent Binding Inhibition, FLNA-binding compound 0.1 μM
[7] = read-out: Percent Binding Inhibition, FLNA-binding compound 1 μM
[8] = FLNA-binding compound 0.01 μM, read-out: Percent Binding Inhibition
[9] = FLNA-binding compound 0.1 μM, read-out: Percent Binding Inhibition
[10] = FLNA-binding compound 1 μM, read-out: Percent Binding Inhibition
[11] = Series C-2, 0.1 μM compound, relative to DAMGO
[12] = Series C-2, 0.1 μM compound, [35S]GTPγS binding to Gαo, striatal membranes
[13] = Series C-2, 1 μM compound + 1 μM β-FNA
[14] = Series C-2, 1 μM compound + β-FNA, relative to DAMGO + BFNA
[15] = Series C-2, 1 μM compound, relative to DAMGO
[16] = Series C-2, 1 μM compound, [35S]GTPγS binding to Gαo, striatal membranes

OC(COc1ccc(Br)c(F)c1)CN1CCCCC1 (stereo not drawn) [Compound A0058]
MOR agonist activity ([35S]GTPγS binding), FLNA-Binding Compound as Agonist 0.1 μM (mu opiate receptor (MOR); 0.1 μM compound): 70.7% | % DAMGO (0.1 μM) (mu opiate receptor (MOR); [2]): 45.3% | MOR agonist activity ([35S]GTPγS binding), FLNA-Binding Compound as Agonist 1 μM (mu opiate receptor (MOR); 1 μM compound): 244.3% | MOR agonist activity ([35S]GTPγS binding), FLNA-Binding Compound as Agonist 1 μM + BFNA (mu opiate receptor (MOR)): 59.9% | % DAMGO + BFNA (mu opiate receptor (MOR); [3]): 150.1% | % DAMGO (1 μM) (mu opiate receptor (MOR); [4]): 106.0% | inhibition at 0.01 µM [1, 5]: 28.9% | inhibition at 0.1 µM [1, 6]: 36.6% | inhibition at 1 µM [1, 7]: 42.1%

CC1CCC(C(C)C)C(OCC(O)CN2CC(C)CC(C)C2)C1 (stereo not drawn) [Compound A0008]
MOR agonist activity ([35S]GTPγS binding), FLNA-Binding Compound as Agonist 0.1 μM (mu opiate receptor (MOR); 0.1 μM compound): 163.8% | % DAMGO (0.1 μM) (mu opiate receptor (MOR); [2]): 109.6% | MOR agonist activity ([35S]GTPγS binding), FLNA-Binding Compound as Agonist 1 μM (mu opiate receptor (MOR); 1 μM compound): 235.0% | MOR agonist activity ([35S]GTPγS binding), FLNA-Binding Compound as Agonist 1 μM + BFNA (mu opiate receptor (MOR)): 133.9% | % DAMGO + BFNA (mu opiate receptor (MOR); [3]): 505.3% | % DAMGO (1 μM) (mu opiate receptor (MOR); [4]): 102.1% | inhibition at 0.01 µM [1, 8]: 34.5% | inhibition at 0.1 µM [1, 9]: 33.5% | inhibition at 1 µM [1, 10]: 39.8%

CC1CN(CC(O)COC2CCCCC2)CC(C)O1 (stereo not drawn) [Compound A0017]
MOR agonist activity ([35S]GTPγS binding), FLNA-Binding Compound as Agonist 0.1 μM (mu opiate receptor (MOR); 0.1 μM compound): 161.9% | % DAMGO (0.1 μM) (mu opiate receptor (MOR); [2]): 96.9% | MOR agonist activity ([35S]GTPγS binding), FLNA-Binding Compound as Agonist 1 μM (mu opiate receptor (MOR); 1 μM compound): 246.0% | MOR agonist activity ([35S]GTPγS binding), FLNA-Binding Compound as Agonist 1 μM + BFNA (mu opiate receptor (MOR)): 65.2% | % DAMGO + BFNA (mu opiate receptor (MOR); [3]): 187.9% | % DAMGO (1 μM) (mu opiate receptor (MOR); [4]): 100.4% | inhibition at 0.01 µM [1, 8]: 29.8% | inhibition at 0.1 µM [1, 9]: 38.6% | inhibition at 1 µM [1, 10]: 44%

COc1ccc(C(=O)CC2c3c(cc4c(c3OC)OCO4)CC[N+]2(C)C)cc1C (stereo not drawn) [Compound B0021]
% DAMGO (0.1 μM) (mu opiate receptor (MOR); Series B, 0.1 μM compound, relative to DAMGO): 75.9% | MOR agonist activity, percent [35S]GTPγS binding at the stated compound concentration (mu opiate receptor (MOR); Series B, 0.1 μM compound, [35S]GTPγS binding to Gαo, striatal membranes): 126.9% | MOR agonist activity, percent [35S]GTPγS binding at the stated compound concentration (mu opiate receptor (MOR); Series B, 1 μM compound + 1 μM β-FNA): 42.9% | % DAMGO + BFNA (mu opiate receptor (MOR); Series B, 1 μM compound + β-FNA, relative to DAMGO + BFNA): 123.6% | % DAMGO (1 μM) (mu opiate receptor (MOR); Series B, 1 μM compound, relative to DAMGO): 104.7% | MOR agonist activity, percent [35S]GTPγS binding at the stated compound concentration (mu opiate receptor (MOR); Series B, 1 μM compound, [35S]GTPγS binding to Gαo, striatal membranes): 256.4% | inhibition at 0.01 µM [1, 5]: 32.5% | inhibition at 0.1 µM [1, 6]: 43.1% | inhibition at 1 µM [1, 7]: 47.6%

CC(=O)c1ccc(S(=O)(=O)N2CCC3(CC2)NCCS3)cc1 [Compound C0060]
% DAMGO (0.1 μM) (mu opiate receptor (MOR); [11]): 114.8% | MOR agonist activity, percent [35S]GTPγS binding at the stated compound concentration (mu opiate receptor (MOR); [12]): 166.5% | MOR agonist activity, percent [35S]GTPγS binding at the stated compound concentration (mu opiate receptor (MOR); [13]): 143.9% | % DAMGO + BFNA (mu opiate receptor (MOR); [14]): 327.0% | % DAMGO (1 μM) (mu opiate receptor (MOR); [15]): 93.9% | MOR agonist activity, percent [35S]GTPγS binding at the stated compound concentration (mu opiate receptor (MOR); [16]): 218.9% | inhibition at 0.01 µM [1, 8]: 60.3% | inhibition at 0.1 µM [1, 9]: 64% | inhibition at 1 µM [1, 10]: 68%

NS(=O)(=O)c1ccc(S(=O)(=O)N2CCC3(CC2)OCCN3S(=O)(=O)c2ccc(S(N)(=O)=O)cc2)cc1 [Compound C0034]
% DAMGO (0.1 μM) (mu opiate receptor (MOR); Series C-1, 0.1 μM compound, relative to DAMGO): 61.3% | Concentration of FLNA-Binding Compound as Agonist 0.1 μM (mu opiate receptor (MOR); Series C-1, 0.1 μM compound, [35S]GTPγS binding to Gαo, striatal membranes): 103.6% | Concentration of FLNA-Binding Compound as Agonist 1 μM + BFNA (mu opiate receptor (MOR); Series C-1, 1 μM compound + 1 μM β-FNA): 80.1% | % DAMGO + BFNA (mu opiate receptor (MOR); Series C-1, 1 μM compound + β-FNA, relative to DAMGO + BFNA): 482.5% | % DAMGO (1 μM) (mu opiate receptor (MOR); Series C-1, 1 μM compound, relative to DAMGO): 76.7% | Concentration of FLNA-Binding Compound as Agonist 1 μM (mu opiate receptor (MOR); Series C-1, 1 μM compound, [35S]GTPγS binding to Gαo, striatal membranes): 167.9% | inhibition at 0.01 µM [1, 5]: 29.6% | inhibition at 0.1 µM [1, 6]: 38.3% | inhibition at 1 µM [1, 7]: 44.8%

COc1ccc(S(=O)(=O)N2CCOC23CCN(C)CC3)cc1 [Compound C0088M]
% DAMGO (0.1 μM) (mu opiate receptor (MOR); [11]): 160.5% | MOR agonist activity, percent [35S]GTPγS binding at the stated compound concentration (mu opiate receptor (MOR); [12]): 276.3% | MOR agonist activity, percent [35S]GTPγS binding at the stated compound concentration (mu opiate receptor (MOR); [13]): 177.1% | % DAMGO + BFNA (mu opiate receptor (MOR); [14]): 513.3% | % DAMGO (1 μM) (mu opiate receptor (MOR); [15]): 161.7% | MOR agonist activity, percent [35S]GTPγS binding at the stated compound concentration (mu opiate receptor (MOR); [16]): 355.3% | inhibition at 0.01 µM [1, 5]: 40.1% | inhibition at 0.1 µM [1, 6]: 52.4% | inhibition at 1 µM [1, 7]: 56.1%

CC1CN(CC(O)COc2ccc(Br)c(F)c2)CC(C)O1 (stereo not drawn) [Compound A0041]
MOR agonist activity ([35S]GTPγS binding), FLNA-Binding Compound as Agonist 0.1 μM (mu opiate receptor (MOR); 0.1 μM compound): 212.7% | % DAMGO (0.1 μM) (mu opiate receptor (MOR); [2]): 108.4% | MOR agonist activity ([35S]GTPγS binding), FLNA-Binding Compound as Agonist 1 μM (mu opiate receptor (MOR); 1 μM compound): 283.6% | MOR agonist activity ([35S]GTPγS binding), FLNA-Binding Compound as Agonist 1 μM + BFNA (mu opiate receptor (MOR)): 50.6% | % DAMGO + BFNA (mu opiate receptor (MOR); [3]): 68.5% | % DAMGO (1 μM) (mu opiate receptor (MOR); [4]): 102.8% | inhibition at 0.01 µM [1, 5]: 45.8% | inhibition at 0.1 µM [1, 6]: 51.7% | inhibition at 1 µM [1, 7]: 56.9%
